Experimental data: the CheMixHub ionic liquid set
± gives the uncertainty stated by the source.

Test: xn = mol fraction of the nth substance listed

Q: With `CCCC[N+](C)(CCCC)CCCC.[Cl-]` + NC(N)=NCCC[C@H](N)C(=O)O + O as the compound, how does the viscosity (313.15 K, 101.3 kPa, x2 = 0, x1 = 0.0007203) read?
A: 0.67 ± 0.1 mPa·s

Q: And the viscosity (313.15 K, 101.3 kPa, x2 = 0, x1 = 0.00144)?
A: 0.7 ± 0.1 mPa·s

Q: Which electrical conductivity (298 K, 101 kPa, x1 = 0.5579) does the source give for `C=CC[n+]1ccn(C)c1.[Cl-]` + NC(N)=O here?
A: 0.169 ± 0.004 S/m

Q: What about the electrical conductivity (298 K, 101 kPa, x1 = 0.6543) of the same compound?
A: 0.222 ± 0.005 S/m

Q: And the electrical conductivity (298 K, 101 kPa, x1 = 0.7911)?
A: 0.283 ± 0.006 S/m

Q: What about the electrical conductivity (298 K, 101 kPa, x1 = 1) of the same compound?
A: 0.411 ± 0.009 S/m

Q: What about the viscosity (298.15 K, 101 kPa, x1 = 0.5579) of the same compound?
A: 405 ± 20 mPa·s

Q: What about the viscosity (298.15 K, 101 kPa, x1 = 0.6543) of the same compound?
A: 353 ± 16 mPa·s

Q: And the viscosity (298.15 K, 101 kPa, x1 = 0.7911)?
A: 299 ± 13 mPa·s

Q: And the viscosity (298.15 K, 101 kPa, x1 = 1)?
A: 255 ± 10 mPa·s

Q: What about the electrical conductivity (308 K, 101 kPa, x1 = 0.5579) of the same compound?
A: 0.228 ± 0.005 S/m

Q: And the electrical conductivity (308 K, 101 kPa, x1 = 0.6543)?
A: 0.298 ± 0.006 S/m

Q: And the electrical conductivity (308 K, 101 kPa, x1 = 0.7911)?
A: 0.372 ± 0.008 S/m

Q: And the electrical conductivity (308 K, 101 kPa, x1 = 1)?
A: 0.498 ± 0.01 S/m

Q: What about the electrical conductivity (318 K, 101 kPa, x1 = 0.5579) of the same compound?
A: 0.287 ± 0.006 S/m

Q: And the electrical conductivity (318 K, 101 kPa, x1 = 0.6543)?
A: 0.372 ± 0.008 S/m

Q: What about the electrical conductivity (318 K, 101 kPa, x1 = 0.7911) of the same compound?
A: 0.464 ± 0.01 S/m

Q: What about the electrical conductivity (318 K, 101 kPa, x1 = 1) of the same compound?
A: 0.618 ± 0.013 S/m

Q: What about the electrical conductivity (328 K, 101 kPa, x1 = 0.5579) of the same compound?
A: 0.342 ± 0.007 S/m

Q: And the electrical conductivity (328 K, 101 kPa, x1 = 0.6543)?
A: 0.448 ± 0.009 S/m

Q: And the electrical conductivity (328 K, 101 kPa, x1 = 0.7911)?
A: 0.562 ± 0.012 S/m

Q: And the electrical conductivity (328 K, 101 kPa, x1 = 1)?
A: 0.736 ± 0.015 S/m

Q: And the electrical conductivity (338 K, 101 kPa, x1 = 0.5579)?
A: 0.416 ± 0.009 S/m

Q: What about the electrical conductivity (338 K, 101 kPa, x1 = 0.6543) of the same compound?
A: 0.538 ± 0.011 S/m

Q: What about the electrical conductivity (338 K, 101 kPa, x1 = 0.7911) of the same compound?
A: 0.677 ± 0.014 S/m

Q: What about the electrical conductivity (338 K, 101 kPa, x1 = 1) of the same compound?
A: 0.862 ± 0.018 S/m

Q: Which electrical conductivity (298 K, 101 kPa, x1 = 0.4945) does the source give for `CCOC(=O)C[n+]1ccn(C)c1.[Cl-]` + NC(N)=O here?
A: 0.282 ± 0.006 S/m

Q: What about the electrical conductivity (298 K, 101 kPa, x1 = 0.5947) of the same compound?
A: 0.346 ± 0.007 S/m

Q: And the electrical conductivity (298 K, 101 kPa, x1 = 0.7459)?
A: 0.419 ± 0.009 S/m

Q: What about the electrical conductivity (298 K, 101 kPa, x1 = 1) of the same compound?
A: 0.509 ± 0.01 S/m

Q: And the viscosity (298.15 K, 101 kPa, x1 = 0.4945)?
A: 567 ± 31 mPa·s

Q: What about the viscosity (298.15 K, 101 kPa, x1 = 0.5947) of the same compound?
A: 482 ± 25 mPa·s

Q: What about the viscosity (298.15 K, 101 kPa, x1 = 0.7459) of the same compound?
A: 415 ± 20 mPa·s

Q: What about the viscosity (298.15 K, 101 kPa, x1 = 1) of the same compound?
A: 349 ± 16 mPa·s

Q: What about the electrical conductivity (308 K, 101 kPa, x1 = 0.4945) of the same compound?
A: 0.347 ± 0.007 S/m

Q: And the electrical conductivity (308 K, 101 kPa, x1 = 0.5947)?
A: 0.433 ± 0.009 S/m

Q: What about the electrical conductivity (308 K, 101 kPa, x1 = 0.7459) of the same compound?
A: 0.525 ± 0.011 S/m

Q: What about the electrical conductivity (308 K, 101 kPa, x1 = 1) of the same compound?
A: 0.636 ± 0.013 S/m

Q: What about the electrical conductivity (318 K, 101 kPa, x1 = 0.4945) of the same compound?
A: 0.414 ± 0.009 S/m

Q: And the electrical conductivity (318 K, 101 kPa, x1 = 0.5947)?
A: 0.51 ± 0.01 S/m

Q: What about the electrical conductivity (318 K, 101 kPa, x1 = 0.7459) of the same compound?
A: 0.631 ± 0.013 S/m

Q: And the electrical conductivity (318 K, 101 kPa, x1 = 1)?
A: 0.764 ± 0.016 S/m

Q: What about the electrical conductivity (328 K, 101 kPa, x1 = 0.4945) of the same compound?
A: 0.489 ± 0.01 S/m

Q: And the electrical conductivity (328 K, 101 kPa, x1 = 0.5947)?
A: 0.607 ± 0.012 S/m

Q: And the electrical conductivity (328 K, 101 kPa, x1 = 0.7459)?
A: 0.741 ± 0.015 S/m

Q: And the electrical conductivity (328 K, 101 kPa, x1 = 1)?
A: 0.916 ± 0.019 S/m

Q: What about the electrical conductivity (338 K, 101 kPa, x1 = 0.4945) of the same compound?
A: 0.602 ± 0.012 S/m

Q: And the electrical conductivity (338 K, 101 kPa, x1 = 0.5947)?
A: 0.722 ± 0.015 S/m

Q: What about the electrical conductivity (338 K, 101 kPa, x1 = 0.7459) of the same compound?
A: 0.883 ± 0.018 S/m

Q: What about the electrical conductivity (338 K, 101 kPa, x1 = 1) of the same compound?
A: 1.06 ± 0.022 S/m

Q: What does the source list for `CC[N+](CC)(CC)CC.[Cl-]` + NCCCO?
A: viscosity (293.15 K, 101.3 kPa, x2 = 0.8): 55.2 ± 2.7 mPa·s; viscosity (293.15 K, 101.3 kPa, x2 = 0.8571): 46.6 ± 2.7 mPa·s; viscosity (293.15 K, 101.3 kPa, x2 = 0.8889): 43.4 ± 2.4 mPa·s; viscosity (298.15 K, 101.3 kPa, x2 = 0.8): 42.4 ± 2.6 mPa·s; viscosity (298.15 K, 101.3 kPa, x2 = 0.8571): 35.8 ± 2.4 mPa·s; viscosity (298.15 K, 101.3 kPa, x2 = 0.8889): 33.4 ± 2.1 mPa·s; viscosity (303.15 K, 101.3 kPa, x2 = 0.8): 32.9 ± 2.3 mPa·s; viscosity (303.15 K, 101.3 kPa, x2 = 0.8571): 27.9 ± 2.3 mPa·s; viscosity (303.15 K, 101.3 kPa, x2 = 0.8889): 26.1 ± 2.1 mPa·s; viscosity (308.15 K, 101.3 kPa, x2 = 0.8): 26.2 ± 2.2 mPa·s; viscosity (308.15 K, 101.3 kPa, x2 = 0.8571): 22.3 ± 2.2 mPa·s; viscosity (308.15 K, 101.3 kPa, x2 = 0.8889): 21 ± 2.1 mPa·s; viscosity (313.15 K, 101.3 kPa, x2 = 0.8): 21.2 ± 2.1 mPa·s; viscosity (313.15 K, 101.3 kPa, x2 = 0.8571): 18 ± 2.1 mPa·s; viscosity (313.15 K, 101.3 kPa, x2 = 0.8889): 16.9 ± 2 mPa·s; viscosity (318.15 K, 101.3 kPa, x2 = 0.8): 17.4 ± 2.1 mPa·s; viscosity (318.15 K, 101.3 kPa, x2 = 0.8571): 14.8 ± 2.1 mPa·s; viscosity (318.15 K, 101.3 kPa, x2 = 0.8889): 14 ± 2 mPa·s; viscosity (323.15 K, 101.3 kPa, x2 = 0.8): 14.4 ± 2.1 mPa·s; viscosity (323.15 K, 101.3 kPa, x2 = 0.8571): 12.3 ± 2.1 mPa·s; viscosity (323.15 K, 101.3 kPa, x2 = 0.8889): 11.6 ± 2 mPa·s; viscosity (328.15 K, 101.3 kPa, x2 = 0.8): 12.1 ± 2 mPa·s; viscosity (328.15 K, 101.3 kPa, x2 = 0.8571): 10.4 ± 2 mPa·s; viscosity (328.15 K, 101.3 kPa, x2 = 0.8889): 9.8 ± 2 mPa·s; viscosity (333.15 K, 101.3 kPa, x2 = 0.8): 10.3 ± 2 mPa·s; viscosity (333.15 K, 101.3 kPa, x2 = 0.8571): 8.8 ± 2 mPa·s; viscosity (333.15 K, 101.3 kPa, x2 = 0.8889): 8.3 ± 2 mPa·s
